Results published in PubChem BioAssay AID248 (DTP/NCI, 2004).
“And” between values parts separate entries of the source, which are not always exact repeats. Identical values can stand only once. Inconclusive results and toxic doses are left out. No stated cut-off is given here; in the data, active means T/C of 150% or more; inactive means T/C below 125%.

Tested on: L1210 leukemia ip in BDF1 mice, survival T/C
Assay: NCI In Vivo Anticancer Drug Screen. Data for tumor model L1210 Leukemia (intraperitoneal) in B6D2F1 (BDF1) mice
Conditions: endpoint: mean survival time, higher = longer survival
In short: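 Antitumor effect is assessed in tumor-bearing animals. Survival in the compound arm is compared with a vehicle-dosed control arm and expressed as their quotient.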

[1] = dose: 75.0 mg/kg/injection, schedule: Q01DX001 (ip), vehicle: saline
[2] = dose: 150.0 mg/kg/injection, schedule: Q01DX001 (ip), vehicle: saline
[3] = dose: 25.0 mg/kg/injection, schedule: Q01DX009 (ip), vehicle: saline
[4] = dose: 50.0 mg/kg/injection, schedule: Q01DX009 (ip), vehicle: saline
[5] = dose: 100.0 mg/kg/injection, schedule: Q01DX009 (ip), vehicle: saline
[6] = dose: 100.0 mg/kg/injection, schedule: Q01DX009 (ip), vehicle: Klucel (hydroxypropylcellulose) (HPC)
[7] = dose: 100.0 mg/kg/injection, schedule: Q04DX003 (ip), vehicle: Klucel (hydroxypropylcellulose) (HPC)
[8] = dose: 200.0 mg/kg/injection, schedule: Q01DX009 (ip), vehicle: Klucel (hydroxypropylcellulose) (HPC)
[9] = dose: 200.0 mg/kg/injection, schedule: Q04DX003 (ip), vehicle: Klucel (hydroxypropylcellulose) (HPC)
[10] = dose: 400.0 mg/kg/injection, schedule: Q04DX003 (ip), vehicle: Klucel (hydroxypropylcellulose) (HPC)
[11] = dose: 100.0 mg/kg/injection, schedule: Q01DX001 (ip), vehicle: carboxymethylcellulose (CMC)
[12] = dose: 200.0 mg/kg/injection, schedule: Q01DX001 (ip), vehicle: carboxymethylcellulose (CMC)
[13] = dose: 400.0 mg/kg/injection, schedule: Q01DX001 (ip), vehicle: carboxymethylcellulose (CMC)
[14] = dose: 100.0 mg/kg/injection, schedule: Q04DX002 (ip), vehicle: Klucel (hydroxypropylcellulose) (HPC)
[15] = dose: 200.0 mg/kg/injection, schedule: Q04DX002 (ip), vehicle: Klucel (hydroxypropylcellulose) (HPC)
[16] = dose: 400.0 mg/kg/injection, schedule: Q04DX002 (ip), vehicle: Klucel (hydroxypropylcellulose) (HPC)
[17] = dose: 100.0 mg/kg/injection, schedule: Q01DX001 (ip), vehicle: saline
[18] = dose: 200.0 mg/kg/injection, schedule: Q01DX001 (ip), vehicle: saline
[19] = dose: 100.0 mg/kg/injection, schedule: Q04DX003 (ip), vehicle: saline
[20] = dose: 200.0 mg/kg/injection, schedule: Q04DX003 (ip), vehicle: saline
[21] = dose: 400.0 mg/kg/injection, schedule: Q04DX003 (ip), vehicle: saline

Measured: T/C

CCC1NCCc2cc(OC)c(O)cc21 (centres undefined)
inactive: [1] 106 % of control | [2] 100 % of control

CC1(C)N=C(N)N=C(N)N1c1ccc(OCCNC(=O)Nc2ccc(S(=O)(=O)F)cc2)c(Cl)c1
inactive: [3] 102 % of control | [4] 105 % of control | [5] 113 % of control

Cc1ccc(/C(=C\c2ccccc2)C(=O)c2ccccc2)cc1
inactive: [6] 95 % of control | [7] 93 % of control | [8] 92 % of control | [9] 93 % of control | dose: 400.0 mg/kg/injection, schedule: Q01DX009 (ip), vehicle: Klucel (hydroxypropylcellulose) (HPC) 95 % of control | [10] 101 % of control

OC(CSc1ccccc1)(c1ccccc1)c1ccccc1
inactive: dose: 56.3 mg/kg/injection, schedule: Q03DX002 (ip), vehicle: saline with Tween-80 121 % of control | dose: 112.0 mg/kg/injection, schedule: Q03DX002 (ip), vehicle: saline with Tween-80 102 % of control

CC(CO)(CO)N=Cc1cc(Br)ccc1O
inactive: [11] 102 % of control | [12] 100 % of control | [13] 86 % of control

C=CC[N+](CCO)(CCO)CCCCCCCCCCCCCCCCCC
inactive: dose: 12.5 mg/kg/injection, schedule: Q04DX002 (ip), vehicle: saline 102 % of control | dose: 25.0 mg/kg/injection, schedule: Q04DX002 (ip), vehicle: saline 97 % of control

Cc1ccc2nn(-c3ccc(O)cc3)[n+]([O-])c2c1
inactive: [11] 102 % of control | [12] 107 % of control | [13] 93 % of control

COc1c(-c2cc(C)nc(NC#N)n2)c(O)c(OC)c2occc12
inactive: [14] 109 % of control | [15] 98 % of control | [16] 98 % of control

C=CCC1(CCCC)C(=O)NC(=O)NC1=O
inactive: [1] 89 % of control | [2] 105 % of control

CN(C)CCCN1c2ccccc2CCc2ccccc21
inactive: dose: 3.12 mg/kg/injection, schedule: Q01DX009 (ip), vehicle: saline 96 % of control | dose: 6.25 mg/kg/injection, schedule: Q01DX009 (ip), vehicle: saline 101 % of control | dose: 12.5 mg/kg/injection, schedule: Q01DX009 (ip), vehicle: saline 93 % of control | [3] 104 % of control | dose: 25.0 mg/kg/injection, schedule: Q04DX003 (ip), vehicle: saline 100 % of control | [4] 101 % of control | dose: 50.0 mg/kg/injection, schedule: Q04DX003 (ip), vehicle: saline 93 % of control | [17] 94 % of control | [18] 90 % of control

CC1(C)CSC(=S)N1CCC#N
inactive: dose: 75.0 mg/kg/injection, schedule: Q01DX001 (ip), vehicle: other 104 % of control

O=[N+]([O-])c1cc(Cl)cc2c1-c1c(Cl)cc(Cl)cc1C2O (centres undefined)
inactive: [6] 91 % of control | [7] 104 % of control | [8] 104 % of control | [9] 103 % of control | [10] 97 % of control

CC(=O)Nc1nc(C)c(CCC(C)C)c(Cl)n1
inactive: dose: 25.0 mg/kg/injection, schedule: Q04DX002 (ip), vehicle: Klucel (hydroxypropylcellulose) (HPC) 104 % of control | dose: 50.0 mg/kg/injection, schedule: Q04DX002 (ip), vehicle: Klucel (hydroxypropylcellulose) (HPC) 93 % of control | [14] 105 % of control

CC(C)(O)C(O)C(=O)O (centres undefined)
inactive: [5] 92 % of control | [19] 106 % of control | dose: 200.0 mg/kg/injection, schedule: Q01DX009 (ip), vehicle: saline 89 % of control | [20] 104 % of control | [21] 97 % of control

Cc1ccc(S(=O)(=O)ON=C2c3ccccc3-c3ccccc32)cc1
inactive: dose: 25.0 mg/kg/injection, schedule: Q01DX009 (ip), vehicle: Klucel (hydroxypropylcellulose) (HPC) 96 % of control | dose: 50.0 mg/kg/injection, schedule: Q01DX009 (ip), vehicle: Klucel (hydroxypropylcellulose) (HPC) 96 % of control | dose: 100.0 mg/kg/injection, schedule: Q01DX001 (ip), vehicle: Klucel (hydroxypropylcellulose) (HPC) 101 % of control | [6] 100 % of control | [7] 98 % of control | dose: 200.0 mg/kg/injection, schedule: Q01DX001 (ip), vehicle: Klucel (hydroxypropylcellulose) (HPC) 99 % of control | [8] 88 % of control and 91 % of control | [9] 93 % of control | dose: 400.0 mg/kg/injection, schedule: Q01DX001 (ip), vehicle: Klucel (hydroxypropylcellulose) (HPC) 105 % of control | [10] 103 % of control

C=CCc1cc(OC)c2c(c1OC)C(=O)c1cccc(OC)c1C2=O
inactive: dose: 100.0 mg/kg/injection, schedule: Q04DX003 (ip), vehicle: saline with Tween-80 97 % of control | dose: 200.0 mg/kg/injection, schedule: Q04DX003 (ip), vehicle: saline with Tween-80 105 % of control

CCc1ccc(-n2cnc3c(=O)[nH]c(N)nc32)cc1
inactive: dose: 25.0 mg/kg/injection, schedule: Q01DX001 (ip), vehicle: saline with Tween-80 86 % of control | dose: 50.0 mg/kg/injection, schedule: Q01DX001 (ip), vehicle: saline with Tween-80 88 % of control | dose: 100.0 mg/kg/injection, schedule: Q01DX001 (ip), vehicle: saline with Tween-80 91 % of control

CN1CCC=C(C(C)(C)O)C1
inactive: [19] 101 % of control | [20] 100 % of control | [21] 106 % of control

CCCCCCCCCCCCCC(C)NCc1ccccc1 (centres undefined)
inactive: dose: 50.0 mg/kg/injection, schedule: Q01DX001 (ip), vehicle: saline 97 % of control | [17] 88 % of control

CC12CCC3(CC1CCC1OC12)OCCO3 (centres undefined)
inactive: [11] 103 % of control | [12] 100 % of control | [13] 97 % of control

CCOC(=O)/C(C#N)=C\c1ccc(N(C)C)cc1
inactive: dose: 100.0 mg/kg/injection, schedule: Q01DX Z (ip), vehicle: methylcellulose (MC) 106 % of control | dose: 200.0 mg/kg/injection, schedule: Q01DX Z (ip), vehicle: methylcellulose (MC) 108 % of control

CC(C)(C)C(=O)Nc1n[nH]c(C#N)c1C#N
inactive: dose: 50.0 mg/kg/injection, schedule: Q04DX002 (ip), vehicle: other 95 % of control | dose: 100.0 mg/kg/injection, schedule: Q04DX002 (ip), vehicle: other 106 % of control | dose: 200.0 mg/kg/injection, schedule: Q04DX002 (ip), vehicle: other 113 % of control

O=S(C/C=C/CS(=O)c1ccccc1)c1ccccc1 (centres undefined)
inactive: [14] 105 % of control | [15] 116 % of control | [16] 103 % of control

CCOC(=O)C1CCCNC1=O (centres undefined)
inactive: [19] 105 % of control | [20] 116 % of control | [21] 108 % of control

CC1(C)OCC(C2OC(N)C3OC(C)(C)OC32)O1 (centres undefined)
inactive: dose: 100.0 mg/kg/injection, schedule: Q04DX002 (ip), vehicle: saline 97 % of control | dose: 200.0 mg/kg/injection, schedule: Q04DX002 (ip), vehicle: saline 113 % of control | dose: 400.0 mg/kg/injection, schedule: Q04DX002 (ip), vehicle: saline 103 % of control

CC(CC(C)(C)C(C)(C)C)C(C)(C)C (centres undefined)
inactive: [17] 90 % of control | [18] 100 % of control | dose: 400.0 mg/kg/injection, schedule: Q01DX001 (ip), vehicle: saline 107 % of control
